Experimental data from US5424451A, “Process for preparing aminoalkylcarbamic esters of eseroline” (priority 1992, dated 1995).
pIC50: −log10 of the molar value. Where two headings read alike, the source gives them in different places.

Experiments:
acetylcholinesterase = conditions: cited from earlier work
[1] = prior art; cited from earlier work
patients = conditions: prior art, cited from earlier work; for Clinical effects in patients (in words): mental diseases / Alzheimer's disease
in vivo = conditions: rat, po
[2] = target: T1, butyrylcholinesterase from human serum (Homo sapiens, UniProt P06276); assay: Inhibition of butyrylcholinesterase from human serum (Ellman colorimetric method); type: biochemical
T1 construct: purchased Sigma Chemical; host or cells: human serum

[3] = target: T2, acetylcholinesterase from electric eel (Electrophorus electricus, UniProt O42275); assay: biochemical
T2 construct: purchased Sigma Chemical; host or cells: electric eel

[4] = target: T3, acetylcholinesterase from human red blood cells (Homo sapiens, UniProt P22303); assay: Inhibition of acetylcholinesterase from human erythrocyte (Ellman colorimetric method); type: biochemical
T3 construct: purchased Sigma Chemical; host or cells: human erythrocyte

[5] = cited from earlier work
[6] = target: T4, acetylcholinesterase from homogenate of in toto rat brain (Rattus norvegicus, UniProt P37136); assay: Inhibition of acetylcholinesterase from rat brain homogenate; type: biochemical; conditions: contact time 10'; read-out: Cholinesterase Inhibition IC50, AChE rat brain
T4 construct: acetylcholinesterase from homogenate of in toto rat brain; from tissue; host or cells: rat whole brain homogenate
T4 sequence (P37136 32-614): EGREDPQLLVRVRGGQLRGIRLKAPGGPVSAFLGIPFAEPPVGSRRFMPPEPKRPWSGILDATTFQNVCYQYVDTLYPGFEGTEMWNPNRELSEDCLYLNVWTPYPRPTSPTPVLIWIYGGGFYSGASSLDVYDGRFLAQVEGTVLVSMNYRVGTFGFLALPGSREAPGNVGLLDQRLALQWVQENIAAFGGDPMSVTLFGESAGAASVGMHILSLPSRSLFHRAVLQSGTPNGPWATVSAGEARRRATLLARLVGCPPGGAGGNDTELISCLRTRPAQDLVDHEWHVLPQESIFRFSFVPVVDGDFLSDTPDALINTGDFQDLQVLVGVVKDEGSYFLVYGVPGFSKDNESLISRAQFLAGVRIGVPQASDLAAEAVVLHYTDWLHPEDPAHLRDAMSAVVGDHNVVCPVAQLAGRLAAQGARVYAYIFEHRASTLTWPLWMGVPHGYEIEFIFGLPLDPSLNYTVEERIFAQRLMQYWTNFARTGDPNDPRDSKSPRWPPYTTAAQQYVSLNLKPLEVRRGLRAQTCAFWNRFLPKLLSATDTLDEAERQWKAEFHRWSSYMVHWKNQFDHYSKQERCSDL
Source text: The compounds prepared as per the Examples reported above and several other compounds under the present invention (Table 1) were pharmacologically tested with a view to determining their inhibitory effect on acetylcholinesterase and butyrylcholinesterase activity. The used method had been developed by Ellman et al. (Ellman, G. L., Courtney, K. D., Andres, V., Featherstone, R. M.: "A New and Rapid Colorimetric Determination of Acetylcholinesterase Activity", Biochem. Pharm. 7, 88, 1961).
AChE rat brain: acetylcholinesterase from homogenate of in toto rat brain
t: contact time (minutes)
IC50 M: median inhibitory molar concentration

[7] = Cholinesterase Inhibition IC50, AChE E.eel, contact time 10'
[8] = Cholinesterase Inhibition IC50, AChE hRBC, contact time 30'
[9] = Cholinesterase Inhibition IC50, AChE hRBC, contact time 60'
[10] = contact time 10', read-out: Cholinesterase Inhibition IC50, AChE hRBC

T3 sequence (P22303 32-617 isoform P22303-2 limits assumed): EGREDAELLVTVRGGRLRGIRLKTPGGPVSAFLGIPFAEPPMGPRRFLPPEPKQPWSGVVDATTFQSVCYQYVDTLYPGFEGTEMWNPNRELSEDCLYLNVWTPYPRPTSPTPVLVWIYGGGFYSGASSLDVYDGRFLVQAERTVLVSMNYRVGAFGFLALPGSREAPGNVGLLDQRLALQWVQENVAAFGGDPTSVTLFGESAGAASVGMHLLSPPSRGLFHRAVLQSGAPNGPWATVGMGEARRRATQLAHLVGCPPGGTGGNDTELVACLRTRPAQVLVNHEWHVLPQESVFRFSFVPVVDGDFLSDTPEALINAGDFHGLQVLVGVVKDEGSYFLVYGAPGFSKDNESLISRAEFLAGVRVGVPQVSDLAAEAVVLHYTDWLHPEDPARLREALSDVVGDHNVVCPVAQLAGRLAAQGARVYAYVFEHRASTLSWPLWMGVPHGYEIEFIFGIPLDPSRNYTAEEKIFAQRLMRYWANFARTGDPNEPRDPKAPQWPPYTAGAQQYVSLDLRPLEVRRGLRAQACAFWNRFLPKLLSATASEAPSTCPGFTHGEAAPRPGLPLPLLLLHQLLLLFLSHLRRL
T1 sequence (P06276 29-602): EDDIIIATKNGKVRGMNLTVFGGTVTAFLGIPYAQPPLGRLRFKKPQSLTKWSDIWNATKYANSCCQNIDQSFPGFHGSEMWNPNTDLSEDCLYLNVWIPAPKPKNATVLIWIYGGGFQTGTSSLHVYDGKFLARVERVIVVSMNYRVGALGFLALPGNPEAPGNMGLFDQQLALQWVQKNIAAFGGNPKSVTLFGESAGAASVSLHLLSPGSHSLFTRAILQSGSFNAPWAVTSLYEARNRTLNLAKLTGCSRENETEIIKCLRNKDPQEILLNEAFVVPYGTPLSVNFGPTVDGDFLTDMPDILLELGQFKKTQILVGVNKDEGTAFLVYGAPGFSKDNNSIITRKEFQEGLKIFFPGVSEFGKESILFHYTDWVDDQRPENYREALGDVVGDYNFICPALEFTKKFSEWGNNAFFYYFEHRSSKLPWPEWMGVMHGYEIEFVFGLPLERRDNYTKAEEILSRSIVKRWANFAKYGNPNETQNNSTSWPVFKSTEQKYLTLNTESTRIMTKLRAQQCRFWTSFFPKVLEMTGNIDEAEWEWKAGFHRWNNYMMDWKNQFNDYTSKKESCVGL
T2 sequence (O42275 24-633): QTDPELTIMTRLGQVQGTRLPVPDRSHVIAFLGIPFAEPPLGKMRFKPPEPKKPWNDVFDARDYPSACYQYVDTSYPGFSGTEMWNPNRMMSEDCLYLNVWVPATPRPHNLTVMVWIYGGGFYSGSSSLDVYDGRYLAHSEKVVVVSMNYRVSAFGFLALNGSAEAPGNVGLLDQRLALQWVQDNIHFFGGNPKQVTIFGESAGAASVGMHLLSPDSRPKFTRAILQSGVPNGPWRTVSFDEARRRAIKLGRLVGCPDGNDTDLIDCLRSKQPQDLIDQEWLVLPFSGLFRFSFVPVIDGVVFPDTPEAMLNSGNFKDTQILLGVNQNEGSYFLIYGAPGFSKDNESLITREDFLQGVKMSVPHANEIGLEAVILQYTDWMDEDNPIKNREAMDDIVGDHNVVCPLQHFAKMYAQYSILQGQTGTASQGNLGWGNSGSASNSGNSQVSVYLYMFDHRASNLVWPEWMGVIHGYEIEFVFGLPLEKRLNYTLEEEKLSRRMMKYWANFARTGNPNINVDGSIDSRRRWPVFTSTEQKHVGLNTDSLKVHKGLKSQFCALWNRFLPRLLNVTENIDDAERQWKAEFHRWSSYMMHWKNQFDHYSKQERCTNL

SMILES	Acetylcholinesterase inhibition, prior art (in words) (acetylcholinesterase)	pIC50 [2]	pIC50 [3, 7]	pIC50 [4, 8]	pIC50 [6]	pIC50 [4, 10]	further results
CNC(=O)Oc1ccc2c(c1)[C@]1(C)CCN(C)[C@@H]1N2C [ESERINE, physostigmine]	potent natural inhibitor of acetylcholinesterase	–	–	–	–	–	Pharmacokinetic properties (in words) [1]: unfavourable pharmacokinetic properties; Clinical effects in patients (in words) (patients): beneficial effects on patients affected by mental diseases; LD50 (in vivo): 4.5 mg/kg
CCCCCCCNC(=O)Oc1ccc2c(c1)[C@]1(C)CCN(C)[C@@H]1N2C [MF 201, heptylcarbamic ester of eseroline, reference compound]	less potent acetylcholinesterase inhibitor than physostigmine	7.40	–	–	–	–	pIC50 ([3]; contact time 10', read-out: Cholinesterase Inhibition IC50, AChE E.eel): 6.26; pIC50 ([3]; contact time 30', read-out: Cholinesterase Inhibition IC50, AChE E.eel): 6.39; pIC50 ([3]; contact time 60', read-out: Cholinesterase Inhibition IC50, AChE E.eel): 6.36; pIC50 ([4]; read-out: Cholinesterase Inhibition IC50, AChE hRBC): 6.54; Pharmacokinetic properties (in words) [1]: better pharmacokinetic properties; Side effects, prior art (in words) [5]: reduced side effects; Neutropenia in patients (in words) (patients; clinical pilot test, Alzheimer's disease): neutropenia phenomena in some, though very few, patients; Clinical effects in patients (in words) (patients): good results in a clinical pilot test on patients affected by Alzheimer's disease
CN1CC[C@@]2(C)c3cc(OC(=O)N4CCOCC4)ccc3N(C)[C@@H]12 [MF 215, reference compound]	low acetylcholinesterase activity depression	–	–	–	–	–	pIC50 ([2]; read-out: Cholinesterase Inhibition IC50, BuChE hserum, contact time 10'): 3.06; Activity compared with the compounds of this invention (in words) ([4]; compared with the compounds of this invention): much lower activity; pIC50 ([4]; read-out: Cholinesterase Inhibition IC50, AChE hRBC, contact time 10'): 4.72; pIC50 ([4]; read-out: Cholinesterase Inhibition IC50, AChE hRBC, contact time 30'): 4.92; pIC50 ([4]; read-out: Cholinesterase Inhibition IC50, AChE hRBC, contact time 60'): 4.80
CN1CC[C@@]2(C)c3cc(OC(=O)NCCCCCCCCN4CCOCC4)ccc3N(C)[C@@H]12 [MF 217, N-morpholinyloctylcarbamoyleseroline]	–	6.77	6.48	7.12	6.06	–	pIC50 ([4]; Cholinesterase Inhibition IC50, AChE hRBC, contact time 10'): 7.00; pIC50 [4, 9]: 7.20; Activity against human red blood cells acetylcholinesterase (in words) ([4]; Table 2 results): Particularly active; LD50 (in vivo): 23 mg/kg
CN1CC[C@@]2(C)c3cc(OC(=O)NCCCCCCCN4CCOCC4)ccc3N(C)[C@@H]12 [MF 224, N-morpholinylheptylcarbamoyleseroline]	–	6.52	5.80	6.77	5.39	6.42	–
CN1CC[C@@]2(C)c3cc(OC(=O)NCCCCCN4CCOCC4)ccc3N(C)[C@@H]12 [MF 225, N-morpholinylpentylcarbamoyleseroline]	–	–	3.48	5.66	3.30	5.12	–
CN1CC[C@@]2(C)c3cc(OC(=O)NCCCCCCN4CCOCC4)ccc3N(C)[C@@H]12 [MF 227, N-morpholinylhexylcarbamoyleseroline]	–	7.00	4.92	6.42	5.09	6.03	–
CN1CC[C@@]2(C)c3cc(OC(=O)NCCCCCCCCCCCCN4CCOCC4)ccc3N(C)[C@@H]12 [MF 228, N-morpholinyldodecylcarbamoyleseroline]	–	7.00	7.15	7.22	6.42	7.15	pIC50 [4, 9]: 7.52
